Two molecules from patent US20140087944A1, “COMPOSITIONS AND METHODS FOR ENHANCING PLANT GROWTH” (NOVOZYMES BIOAG A/S, priority 2012, published 2014) can be followed below.

Common to all, as to format: in vivo
In assay [1] the test system is soybean. As to the kind of experiment: Soybean pod yield in greenhouse, gluconolactone with isoflavonoids (Example 8). To be noted: for soybean pod yield, Fresh Weight: gluconolactone 1 mg/L, pods harvested after 6 weeks; for yield increase over Cue®: gluconolactone added with Cue®. The procedure:
Cue® is a genistein/daidzein isoflavonoid product available from Novozymes Biologicals, Inc. Cue® is used as a soybean seed treatment and the effect of gluconolactone in combination with flavonoids was evaluated to see if soybean production could be enhanced. Gluconolactone was prepared with Cue®. Daidzein, another isoflavonoid, was similarly prepared with gluconolactone with daidzein having the same isoflavonoid concentration as Cue®.
About 100 g soybean seeds were treated with 1 mg/L treatment solutions of gluconolactone and 200 μl of CruiserMaxx® Beans (Syngenta) fungicide+170 μl distilled water+30 μl Cue® or daidzein. For control, a total of 200 μl water was used with 200 μl CruiserMaxx® Bean fungicide. One day after seed treatments, seeds were planted in greenhouse in 1 gallon plastic pots containing soilless mix Fafard 3B. There were 3 plants/pot and 4 pots/treatment. Soybean plants were occasionally fertilized with 20-15-20 NPK fertilizer. Pods were harvested after 6 weeks. Average pod fresh weights were analyzed by student-t test using JUMP statistical software.

A further assay deals with corn seedling. The assay can be described thus: Corn seedling root growth after seed treatment, Petri plate germination, WinRhizo root scanner (Examples 1 and 2). How it is done: An experiment was performed to determine the effect of gluconolactone on corn seedling root growth parameters. Unsterilized corn seeds (Peterson Hybrid corn 98L90GTCBLL pre-treated with fungicide Acceleron) were treated with water (control) and gluconolactone solutions (1 and 10 mg/L distilled water). In a clear plastic bag (25 cm×25 cm), 100 gram seeds were treated with 500 μl water (for control). Gluconolactone treatments of 1 and 10 mg/L included 250 μl water+250 μl gluconolactone solution with vigorous shaking. Four hours after treatment, 10 seeds were plated in 150 mm×15 mm polystyrene Petri plates (Fisherband) on 5⅜″ germination paper circle (Anchor Paper Co., Saint Paul, Mn) and moistened with 12 ml distilled water. Four Petri plates were prepared per treatment as 4 replicates. Petri plates were then placed in the dark in under-counter cabinets in the lab at 24° C. for 7 days. After 7 days, seedlings were removed from the cabinets, exposed to light, and their main roots severed and measured for various root parameters with WinRhizo root scanner (Regent Instruments Inc., WinRhizo Pro 2007). For all statistical analysis, student t-test was applied using JMPv.9 statistical software.
An experiment was designed to evaluate if any gluconolactone concentration between 1.0-10 mg/L and below 1.0 mg/L has an optimum effect on influencing seedling root growth. Example 2 was conducted according to the protocols of Example 1. Accordingly, gluconolactone concentrations of 5.0 mg/L, 1.0 mg/L, and 0.5 mg/L, were evaluated.

A further assay deals with corn seedlings. As to the kind of experiment: Growth of seedlings in water-agar medium in test tube (Example 3), corn. How it is done:
(§1) The effect of gluconolactone on growth of seedlings of various crops was examined. Corn, green lentil and yellow pea seeds (100 g) were treated with 1.0 mg/L gluconolactone and control seeds were treated with distilled water according to the protocols of Example 1. After treatments, seeds were allowed to dry overnight. One day after treatment, seeds were placed in 25×150 mm glass test tubes containing 40 ml of 5% water-agar solidified medium. Seeds were placed on the surface of medium in each test tube. Test tubes were then placed in a rack and kept in the lab under diffuse light. As the treated seeds were not sterilized, sterilization of the agar medium was not maintained and the test tubes were kept uncapped. Because of the agar medium being without any sugar, the occurrence of contamination was minimal for up to 10 days. The number of seeds per treatment was 10.

In the next assay the test system is green lentil seedlings. As to the kind of experiment: Growth of seedlings in water-agar medium in test tube (Example 3), lentil. How it is done: as §1
The subject of a further assay is yellow pea seedlings. The assay can be described thus: Growth of seedlings in water-agar medium in test tube (Example 3), pea. The procedure:
as §1

The test system of assay [2] is soybean. The assay can be described thus: Performance of rhizobial inoculants for soybean seeds, pod yield (Example 10). The procedure: The effect of gluconolactone on the performance of rhizobial inoculants for soybean seeds was evaluated to see if soybean production could be enhanced. 1 mg/L of gluconolactone was added to rhizobial inoculants products Cell-Tech® and Optimize-400® (both from Novozymes Biologicals Inc.). Seed treatments were performed following the instruction cited in the product labels. The total liquid dose going onto soybean seeds was maintained the same when gluconolactone was added. Control seeds were treated with water. About 100 g seed was treated in a clear plastic bag (25 cm×25 cm) with treatment solutions. Seeds were planted 2 hours after treatment in […] containing Fafard soilless mix in greenhouse. 3 plants were allowed to grow per pot and there were 5 pots per treatment. Pods were harvested 6 weeks after planting.

For a further assay, the system named is lentil seedlings. As to the kind of experiment: Stress tolerance of lentil seedlings at 8° C., root growth parameters (Example 11). Conditions: seven days after plating, 1.0 mg/L gluconolactone, 100 mg/L glutathione, 100 mg/L PADG. The procedure: The effect of antioxidants on stress tolerance by lentil seedlings at 8° C. was evaluated. Lentil seeds treated with the treatment solutions at 5 ml/kg of seed. […] Treated seeds were plated in large Petri plates on germination paper moistened with deionized water. Plates were incubated at 8° C. in a walk in cold room. Seven days after plating, seedling roots were measured for various growth parameters.

The mark [3] stands for this setting: Example 1, GL 1 mg/L seed treatment, main root, 7 days.
The mark [4] stands for this setting: Example 1, GL 1 mg/L seed treatment, main root, 7 days, listed as GL.
Setting [5] is: Example 1, GL 10 mg/L seed treatment, main root, 7 days.
[6] abbreviates: Example 1, GL 10 mg/L seed treatment, main root, 7 days, listed as GL.
[7] abbreviates: Example 2, GL 0.5 mg/L seed treatment.
Setting [8] is: Example 2, GL 1.0 mg/L seed treatment.
The mark [9] stands for this setting: Example 2, GL 5.0 mg/L seed treatment.
Where [10] appears, read: gluconolactone 1 mg/L seed treatment, harvested 10 days after planting.
The mark [11] stands for this setting: gluconolactone 1 mg/L, non-significantly.

With `O=c1c(-c2ccc(O)cc2)coc2cc(O)ccc12` [Daidzein, reference compound], the “soybean pod yield, Fresh Weight” value with soybean [1] (1st trial) came to 36.782 g; with soybean [1] (2nd trial) it was 36.4 g; with soybean [1] (3rd trial), 32.482 g.

For `O=C1O[C@H](CO)[C@@H](O)[C@H](O)[C@H]1O` [Gluconolactone, gluconolactone], the Diameter was 0.940a mm in the assay with corn seedling (setting [3]) and “did not show any difference” with corn seedling (setting [5]). The Surface area entry in the assay with corn seedling (setting [3]) is reported as “significantly higher than control”; in the assay with corn seedling (setting [4]), 2.128a cm^2; with corn seedling (setting [5]) it was “did not show any difference”; in the assay on corn seedling (setting [6]), 1.748ab cm^2; in the assay on lentil seedlings it was 0.9457 a cm^2; in the assay on lentil seedlings (listed as gluconolactone), “significantly increased”. Further, the Volume entry in the assay with corn seedling (setting [3]) is recorded as “significantly higher than control”; in the assay with corn seedling (setting [4]), 0.051a cm^3; in the assay with corn seedling (setting [5]) it was “did not show any difference”; in the assay with corn seedling (setting [6]) it was 0.039ab cm^3; with lentil seedlings, 0.02474 a cm^3; with lentil seedlings (listed as gluconolactone) it was “significantly increased”. The Length entry with corn seedling (Example 1, GL 1 mg/L seed treatment, main root, 7 days in dark at 24° C.) is “significantly higher than control”; in the assay on corn seedling (Example 1, GL 1 mg/L seed treatment, main root, 7 days in dark at 24° C., listed as GL) it was 7.108a cm; with corn seedling (setting [5]), “did not show any difference”; in the assay with corn seedling (setting [6]), 6.282ab cm; in the assay with corn seedling (setting [7]) it was 6.778ab cm; in the assay with corn seedling (setting [8]), “optimum dose”. Also, the Length in the assay with corn seedling (Example 2, GL 1.0 mg/L seed treatment, listed as GL) was 7.048a cm; in the assay with corn seedling (setting [9]), “least effective”; in the assay on corn seedling (Example 2, GL 5.0 mg/L seed treatment, listed as GL) it was 6.054b cm. Also, the Diam in the assay with corn seedling (setting [7]) is on record as 1.190a mm; in the assay with corn seedling (setting [8]), 1.116b mm; with corn seedling (setting [9]), 1.149ab mm. Also, the “Root Volume” value was found to be 0.076a cm3 in the assay on corn seedling (setting [7]), 0.070ab cm3 in the assay on corn seedling (setting [8]) and 0.063b cm3 in the assay on corn seedling (setting [9]). The figures for the Seedling dry weight in the assay on corn seedlings (setting [10]), with green lentil seedlings (setting [10]) and in the assay with yellow pea seedlings (setting [10]) were 0.606a g, 0.083a* g and 0.483a g, respectively. Besides, the “average plant dry biomass higher (than control)” value with corn seedlings (setting [11]) was 6.3%; in the assay with green lentil seedlings (gluconolactone 1 mg/L, significantly), 38.3%; in the assay with yellow pea seedlings (setting [11]), 5.0%. Moreover, the “yield increase over Cue®” value in the assay on soybean [1] (1st trial) turned out to be 6%; in the assay with soybean [1] (2nd trial) it was 9.7%; in the assay on soybean [1] (3rd trial), 0.6%. Besides, the “yield increase (over daidzein alone)” value in the assay with soybean [1] (gluconolactone added with daidzein, in 2 out of 3 trials) is on record as “approximately 2.5%”. The “% increase (dry pod yield)” value is 3.36% in the assay on soybean [2] (1 mg/L gluconolactone added to Cell-Tech, over Cell-Tech alone) and 4.84% with soybean [2] (1 mg/L gluconolactone added to Optimize-400, over Optimize-400 alone). The “No. of lateral roots” value in the assay on lentil seedlings is reported as 2.935 ab; in the assay with lentil seedlings (listed as gluconolactone) it was “significantly increased”. Further, the “Seedling Root Length” value in the assay on lentil seedlings is 2.895 a cm; with lentil seedlings (listed as gluconolactone), “significantly increased”.
